{"source": "ChEMBL document CHEMBL5034001", "about": "(J Med Chem, 2021)", "key": {"Calu-1 [1]": {"test_system": "Calu-1", "experiment": "Inhibition of cell invasion in human Calu-1-GFP cells at 100 nM after 24 hrs by transwell invasion assay", "type": "functional, cell-based"}, "[2]": {"molecular_target": "Focal adhesion kinase 1 (Homo sapiens) (UniProt Q05397)", "sequence (Q05397 2-1052 limits assumed)": "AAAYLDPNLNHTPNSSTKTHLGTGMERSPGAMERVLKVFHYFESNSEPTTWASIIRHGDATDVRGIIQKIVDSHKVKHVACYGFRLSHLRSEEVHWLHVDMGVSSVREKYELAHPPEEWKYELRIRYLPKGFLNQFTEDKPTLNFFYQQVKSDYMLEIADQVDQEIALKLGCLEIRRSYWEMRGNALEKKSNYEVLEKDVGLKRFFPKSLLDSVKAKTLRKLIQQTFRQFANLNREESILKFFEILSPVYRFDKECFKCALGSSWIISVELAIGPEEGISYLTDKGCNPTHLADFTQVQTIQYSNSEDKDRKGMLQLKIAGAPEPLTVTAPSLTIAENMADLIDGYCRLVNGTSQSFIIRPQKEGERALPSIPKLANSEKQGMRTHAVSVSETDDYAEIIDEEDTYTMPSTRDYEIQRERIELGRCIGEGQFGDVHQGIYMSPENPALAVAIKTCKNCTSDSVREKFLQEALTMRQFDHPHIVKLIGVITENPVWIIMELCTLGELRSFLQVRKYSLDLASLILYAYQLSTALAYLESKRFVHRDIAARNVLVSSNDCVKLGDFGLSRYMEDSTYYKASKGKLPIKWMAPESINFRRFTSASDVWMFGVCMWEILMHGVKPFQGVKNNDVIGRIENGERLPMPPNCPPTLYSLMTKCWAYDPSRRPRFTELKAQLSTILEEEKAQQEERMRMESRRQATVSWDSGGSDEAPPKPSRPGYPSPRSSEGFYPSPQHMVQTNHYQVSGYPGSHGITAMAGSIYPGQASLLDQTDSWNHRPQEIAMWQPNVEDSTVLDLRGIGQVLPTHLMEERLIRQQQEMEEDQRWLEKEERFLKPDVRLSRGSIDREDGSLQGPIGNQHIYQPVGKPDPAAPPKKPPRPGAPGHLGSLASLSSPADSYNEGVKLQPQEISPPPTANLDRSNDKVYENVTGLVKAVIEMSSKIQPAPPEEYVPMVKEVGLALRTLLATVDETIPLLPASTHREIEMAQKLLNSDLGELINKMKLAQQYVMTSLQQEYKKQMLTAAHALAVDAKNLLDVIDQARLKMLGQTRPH", "experiment": "Induction of FAK degradation in human MDA-MB-231 cells at 10 nM treated for 16 hrs followed by compound washout and measured after 48 hrs by Western blot analysis", "type": "cell-based"}, "MDA-MB-231 [3]": {"test_system": "MDA-MB-231", "experiment": "Down regulation of C-myc protein expression in human MDA-MB-231 cells at 1 to 500 nM after 48 hrs by Western blot analysis", "type": "functional, cell-based", "details": "dose 1-500 nM"}, "NCI-H2228 [4]": {"test_system": "NCI-H2228", "experiment": "Down regulation of FAK in human NCI-H2228 cells at 1 to 1000 nM after 16 hrs by Western blot analysis", "type": "functional, cell-based", "details": "dose 1-1000 nM"}, "MDA-MB-231 [5]": {"test_system": "MDA-MB-231", "experiment": "Inhibition of cell migration in human MDA-MB-231 cells assessed as wound confluence ratio at 10 nM after 48 hrs by wound healing assay", "type": "functional"}, "[6]": {"test_system": "Receptor-type tyrosine-protein kinase FLT3 (Homo sapiens), P36888 [N841I]", "experiment": "Binding affinity to human partial length FLT3 N841I mutant (V592 to Y969 residues) expressed in bacterial expression system assessed as residual binding level at 100 nM by Kinomescan method relative to control"}, "[7]": {"molecular_target": "Protein-tyrosine kinase 2-beta (Homo sapiens) (UniProt Q14289)", "sequence (Q14289 whole entry, looked up)": "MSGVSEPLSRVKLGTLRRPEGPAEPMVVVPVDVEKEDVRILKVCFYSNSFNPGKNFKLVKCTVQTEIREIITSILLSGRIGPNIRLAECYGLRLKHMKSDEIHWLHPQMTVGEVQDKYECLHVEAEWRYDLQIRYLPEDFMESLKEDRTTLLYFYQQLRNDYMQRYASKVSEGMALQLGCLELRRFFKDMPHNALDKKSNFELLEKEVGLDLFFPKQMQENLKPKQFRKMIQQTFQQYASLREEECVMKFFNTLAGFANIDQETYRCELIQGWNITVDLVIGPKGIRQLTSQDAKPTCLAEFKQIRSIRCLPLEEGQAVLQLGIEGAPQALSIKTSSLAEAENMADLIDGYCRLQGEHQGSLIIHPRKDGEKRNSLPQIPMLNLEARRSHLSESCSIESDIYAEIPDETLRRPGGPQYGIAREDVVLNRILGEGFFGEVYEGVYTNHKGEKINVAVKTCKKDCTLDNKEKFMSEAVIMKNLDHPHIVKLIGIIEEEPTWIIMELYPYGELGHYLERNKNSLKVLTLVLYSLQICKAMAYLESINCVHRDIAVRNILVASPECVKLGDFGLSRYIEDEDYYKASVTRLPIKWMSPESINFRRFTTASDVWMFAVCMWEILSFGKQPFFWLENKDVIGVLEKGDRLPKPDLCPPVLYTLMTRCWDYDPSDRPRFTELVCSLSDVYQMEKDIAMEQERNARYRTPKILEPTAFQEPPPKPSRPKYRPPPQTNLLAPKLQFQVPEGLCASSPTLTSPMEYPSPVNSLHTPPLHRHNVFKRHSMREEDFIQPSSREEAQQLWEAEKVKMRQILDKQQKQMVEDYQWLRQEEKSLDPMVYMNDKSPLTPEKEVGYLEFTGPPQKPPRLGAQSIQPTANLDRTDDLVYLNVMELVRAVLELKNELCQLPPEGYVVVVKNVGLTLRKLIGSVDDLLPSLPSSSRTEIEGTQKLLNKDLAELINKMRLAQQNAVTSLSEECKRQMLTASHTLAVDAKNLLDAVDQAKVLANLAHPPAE", "experiment": "Induction of PYK2 degradation in human MDA-MB-231 cells at 10 nM treated for 16 hrs followed by compound washout and measured after 48 hrs by Western blot analysis", "type": "cell-based"}, "[8]": {"molecular_target": "Tyrosine-protein kinase receptor UFO (Homo sapiens) (UniProt P30530)", "sequence (P30530 whole entry, the tested form may be a part)": "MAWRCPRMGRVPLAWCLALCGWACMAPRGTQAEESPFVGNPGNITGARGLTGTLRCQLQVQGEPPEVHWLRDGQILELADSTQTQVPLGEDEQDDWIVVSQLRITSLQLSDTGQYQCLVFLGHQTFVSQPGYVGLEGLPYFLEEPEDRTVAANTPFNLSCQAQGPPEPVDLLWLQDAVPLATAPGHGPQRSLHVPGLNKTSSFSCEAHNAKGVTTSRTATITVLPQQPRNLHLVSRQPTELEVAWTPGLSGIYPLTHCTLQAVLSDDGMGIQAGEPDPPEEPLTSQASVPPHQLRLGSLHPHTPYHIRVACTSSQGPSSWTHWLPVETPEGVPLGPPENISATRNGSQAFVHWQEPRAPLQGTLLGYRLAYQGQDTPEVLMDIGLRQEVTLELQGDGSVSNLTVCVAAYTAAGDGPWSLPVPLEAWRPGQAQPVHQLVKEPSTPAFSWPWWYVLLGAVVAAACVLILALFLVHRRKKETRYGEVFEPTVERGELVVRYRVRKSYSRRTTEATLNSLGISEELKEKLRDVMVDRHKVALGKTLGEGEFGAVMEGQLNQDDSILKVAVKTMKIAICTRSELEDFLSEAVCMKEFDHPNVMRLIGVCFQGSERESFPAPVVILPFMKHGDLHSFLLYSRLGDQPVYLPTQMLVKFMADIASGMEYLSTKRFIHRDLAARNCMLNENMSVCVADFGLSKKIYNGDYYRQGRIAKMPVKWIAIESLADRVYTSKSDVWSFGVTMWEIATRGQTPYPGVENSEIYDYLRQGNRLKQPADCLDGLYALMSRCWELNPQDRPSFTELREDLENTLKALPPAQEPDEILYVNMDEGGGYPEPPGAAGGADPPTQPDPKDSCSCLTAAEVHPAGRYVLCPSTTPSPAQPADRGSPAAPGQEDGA", "experiment": "Binding affinity to wild-type human partial length AXL (R497 to Y821 residues) expressed in bacterial expression system assessed as residual binding level at 100 nM by Kinomescan method relative to control"}, "[9]": {"molecular_target": "Focal adhesion kinase 1 (Homo sapiens) (UniProt Q05397)", "experiment": "Binding affinity to wild-type human partial length FAK (D402 to R696 residues) expressed in bacterial expression system assessed as residual binding level at 100 nM by Kinomescan method relative to control"}, "Calu-1 [10]": {"test_system": "Calu-1", "experiment": "Induction of G1 cell cycle arrest in human Calu-1 cells at 100 nM after 24 to 48 hrs", "type": "functional, cell-based", "details": "time 24-48 hrs"}, "[11]": {"test_system": "Receptor-type tyrosine-protein kinase FLT3 (Homo sapiens), P36888 [D835Y]", "experiment": "Binding affinity to human partial length FLT3 D835Y mutant (Q580 to Y969 residues) expressed in bacterial expression system assessed as residual binding level at 100 nM by Kinomescan method relative to control"}, "[12]": {"experiment": "Metabolic stability in CD-1 mouse liver microsomes preincubated for 10 mins followed by NADPH regenerating system addition and measured after 10 mins by LC-MS/MS analysis", "type": "ADME, Microsome", "details": "time 20 min, read-out: Stability"}, "[13]": {"test_system": "ALK tyrosine kinase receptor (Homo sapiens), Q9UM73 [G1202R]", "experiment": "Induction of […] G1202R mutant degradation in human […] at 100 nM by Western blot analysis", "type": "cell-based"}, "[14]": {"test_system": "Leucine-rich repeat serine/threonine-protein kinase 2 (Homo sapiens), Q5S007 [G2019S]", "experiment": "Binding affinity to human partial length LRRK2 G2019S mutant (H970 to E2527 residues) expressed in mammalian expression system assessed as residual binding level at 100 nM by Kinomescan method relative to control"}, "[15]": {"experiment": "Half life in […] at 10 mg/kg, po or 2 mg/kg, iv measured upto 24 hrs", "type": "ADME, organism-based", "details": "in vivo"}, "[16]": {"molecular_target": "ALK tyrosine kinase receptor (Homo sapiens, UniProt Q9UM73)", "experiment": "Inhibition of ALK downstream signalling in human SR cells assessed as reduction in ratio of pALK at 0.1 to 50 nM by Western blot analysis", "type": "cell-based", "details": "dose 0.1-50 nM"}, "[17]": {"test_system": "Mast/stem cell growth factor receptor Kit (Homo sapiens), P10721 [D816V]", "sequence (P10721 whole entry D816V, the tested form may be a part)": "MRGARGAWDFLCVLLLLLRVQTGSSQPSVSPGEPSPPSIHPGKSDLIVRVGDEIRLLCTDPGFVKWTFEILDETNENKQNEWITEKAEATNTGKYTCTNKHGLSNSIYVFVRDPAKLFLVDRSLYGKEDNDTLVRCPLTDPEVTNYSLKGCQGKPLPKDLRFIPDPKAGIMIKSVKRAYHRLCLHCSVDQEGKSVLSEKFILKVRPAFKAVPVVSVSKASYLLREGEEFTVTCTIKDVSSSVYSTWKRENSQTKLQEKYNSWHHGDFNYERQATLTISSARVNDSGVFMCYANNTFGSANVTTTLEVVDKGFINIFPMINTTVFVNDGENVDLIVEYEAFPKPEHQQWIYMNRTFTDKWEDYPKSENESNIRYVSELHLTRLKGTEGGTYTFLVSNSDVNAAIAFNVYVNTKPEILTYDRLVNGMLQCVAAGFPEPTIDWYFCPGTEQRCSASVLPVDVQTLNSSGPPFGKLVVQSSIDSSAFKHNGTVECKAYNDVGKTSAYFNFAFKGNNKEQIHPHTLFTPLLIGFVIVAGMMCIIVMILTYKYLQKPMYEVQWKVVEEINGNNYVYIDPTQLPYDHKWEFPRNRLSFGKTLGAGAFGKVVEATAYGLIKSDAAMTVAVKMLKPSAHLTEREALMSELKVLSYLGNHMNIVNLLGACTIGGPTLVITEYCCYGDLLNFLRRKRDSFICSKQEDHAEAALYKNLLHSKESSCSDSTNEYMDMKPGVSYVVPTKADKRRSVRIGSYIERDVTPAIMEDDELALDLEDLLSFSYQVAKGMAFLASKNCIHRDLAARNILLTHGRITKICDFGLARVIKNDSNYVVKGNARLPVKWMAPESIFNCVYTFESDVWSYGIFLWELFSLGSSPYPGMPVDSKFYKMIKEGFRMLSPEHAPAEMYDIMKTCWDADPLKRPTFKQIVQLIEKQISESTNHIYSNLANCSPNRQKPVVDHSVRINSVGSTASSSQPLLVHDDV", "experiment": "Binding affinity to human partial length KIT D816V mutant (I571 to D952 residues) expressed in bacterial expression system assessed as residual binding level at 100 nM by Kinomescan method relative to control"}, "HEK-293T": {"test_system": "HEK-293T", "experiment": "Antiproliferative activity against human 293T cells overexpressing ALK G1202R mutant assessed as cell growth inhibition after 72 hrs", "type": "functional, cell-based"}, "NCI-H2228 [18]": {"test_system": "NCI-H2228", "experiment": "Down regulation of RSK1 in human NCI-H2228 cells at 1 to 1000 nM after 16 hrs by Western blot analysis", "type": "functional, cell-based", "details": "dose 1-1000 nM"}, "[19]": {"test_system": "Receptor-type tyrosine-protein kinase FLT3 (Homo sapiens), P36888 [UNDEFINED MUTATION]", "experiment": "Binding affinity to human partial length FLT3 ITD mutant expressed in bacterial expression system assessed as residual binding level at 100 nM by Kinomescan method relative to control"}, "[20]": {"molecular_target": "Activated CDC42 kinase 1 (Homo sapiens) (UniProt Q07912)", "sequence (Q07912 whole entry, looked up, the tested form may be a part)": "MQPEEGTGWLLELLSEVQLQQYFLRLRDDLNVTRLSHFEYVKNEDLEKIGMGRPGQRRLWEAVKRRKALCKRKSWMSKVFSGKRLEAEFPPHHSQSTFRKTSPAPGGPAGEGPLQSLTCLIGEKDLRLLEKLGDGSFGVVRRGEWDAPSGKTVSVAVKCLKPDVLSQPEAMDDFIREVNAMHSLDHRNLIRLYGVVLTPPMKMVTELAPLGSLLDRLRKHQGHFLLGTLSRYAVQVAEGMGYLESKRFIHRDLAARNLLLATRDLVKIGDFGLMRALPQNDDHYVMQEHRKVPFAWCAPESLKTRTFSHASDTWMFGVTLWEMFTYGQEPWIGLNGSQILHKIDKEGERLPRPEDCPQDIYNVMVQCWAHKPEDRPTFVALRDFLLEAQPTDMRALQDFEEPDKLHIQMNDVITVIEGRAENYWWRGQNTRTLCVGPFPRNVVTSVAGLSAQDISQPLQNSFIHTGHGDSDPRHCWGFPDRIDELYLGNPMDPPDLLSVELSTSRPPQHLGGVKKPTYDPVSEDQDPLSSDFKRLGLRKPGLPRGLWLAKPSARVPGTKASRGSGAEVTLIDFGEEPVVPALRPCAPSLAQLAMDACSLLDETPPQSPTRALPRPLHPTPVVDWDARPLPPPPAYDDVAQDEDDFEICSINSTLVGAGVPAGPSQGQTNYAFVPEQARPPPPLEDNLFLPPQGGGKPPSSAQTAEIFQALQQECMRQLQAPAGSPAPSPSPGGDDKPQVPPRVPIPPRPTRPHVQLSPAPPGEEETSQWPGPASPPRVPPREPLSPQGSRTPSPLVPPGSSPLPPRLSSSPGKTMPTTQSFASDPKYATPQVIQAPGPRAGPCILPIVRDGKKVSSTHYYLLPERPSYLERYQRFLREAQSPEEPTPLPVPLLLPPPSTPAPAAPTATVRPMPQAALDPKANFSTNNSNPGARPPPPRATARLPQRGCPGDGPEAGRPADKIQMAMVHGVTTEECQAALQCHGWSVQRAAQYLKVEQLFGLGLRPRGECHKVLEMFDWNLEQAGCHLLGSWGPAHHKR", "experiment": "Binding affinity to wild-type human partial length TNK2 (S159 to D474 residues) expressed in bacterial expression system assessed as residual binding level at 100 nM by Kinomescan method relative to control"}, "[21]": {"experiment": "Oral bioavailability in […] at 10 mg/kg measured upto 24 hrs", "type": "ADME, organism-based", "details": "in vivo"}, "Calu-1 [22]": {"test_system": "Calu-1", "experiment": "Down regulation of cyclin D1 protein expression in human Calu-1 cells at 1 to 500 nM after 48 hrs by Western blot analysis", "type": "functional, cell-based", "details": "dose 1-500 nM"}, "Calu-1 [23]": {"test_system": "Calu-1", "experiment": "Down regulation of RSK1 in human Calu-1 cells at 1 to 1000 nM after 16 hrs by Western blot analysis", "type": "functional, cell-based", "details": "dose 1-1000 nM"}}, "note": "Calls of active or inactive are those of the source. The calls are words filed in the database; no cut-off is given here.", "data": [{"smiles": "COc1cc(N2CCC(N3CCN(C(=O)CNc4cccc5c4C(=O)N(C4CCC(=O)NC4=O)C5=O)CC3)CC2)ccc1Nc1ncc(Cl)c(Nc2ccccc2P(C)(C)=O)n1", "note": "(centres undefined)", "values": [{"measurement": "inhibition", "setting": "Calu-1 [1]", "value": "Active"}, {"measurement": "Activity", "setting": "[2]", "value": "inactive"}, {"measurement": "Activity", "setting": "MDA-MB-231 [3]", "value": "Active"}, {"measurement": "Activity", "setting": "NCI-H2228 [4]", "value": "Active"}, {"measurement": "inhibition at 0.01 µM", "setting": "MDA-MB-231 [5]", "value": 48, "unit": "%"}, {"measurement": "Activity", "setting": "[6]", "value": 4, "unit": "%"}, {"measurement": "Activity", "setting": "[7]", "value": "inactive"}, {"measurement": "Activity", "setting": "[8]", "value": 9.5, "unit": "%"}, {"measurement": "Activity", "setting": "[9]", "value": 2.5, "unit": "%"}, {"measurement": "Activity", "setting": "Calu-1 [10]", "value": "Active"}, {"measurement": "Activity", "setting": "[11]", "value": 8.2, "unit": "%"}, {"measurement": "microsomal CLint", "setting": "[12]", "value": 16.7, "unit": "µL/min/mg"}, {"measurement": "Activity", "setting": "[13]", "value": "Active"}, {"measurement": "Activity", "setting": "[14]", "value": 0, "unit": "%"}, {"measurement": "half-life", "setting": "[15]", "value": 426, "unit": "min"}, {"measurement": "Ratio", "setting": "[16]", "value": 0.18}, {"measurement": "Activity", "setting": "[17]", "value": 8.1, "unit": "%"}, {"measurement": "IC50", "setting": "HEK-293T", "value": 21, "unit": "nM"}, {"measurement": "Activity", "setting": "NCI-H2228 [18]", "value": "Active"}, {"measurement": "Activity", "setting": "[19]", "value": 3, "unit": "%"}, {"measurement": "Activity", "setting": "[20]", "value": 2, "unit": "%"}, {"measurement": "bioavailability", "setting": "[21]", "value": 18.4, "unit": "%"}, {"measurement": "Activity", "setting": "Calu-1 [22]", "value": "Active"}, {"measurement": "Activity", "setting": "Calu-1 [23]", "value": "Active"}]}]}
